Assay results taken from US9301951B2 (Ardelyx, Inc., priority 2010, dated 2016).

Key:
rat NaP2b (SLC34A2) = molecular target: T1, rat NaP2b (SLC34A2) (Rattus norvegicus, UniProt Q9JJ09); assay: Inhibition of NaP2b-mediated Pi (33P) uptake in transfected HEK293 cells, rat NaP2b; assay type: cell-based; conditions: HEK293 cells transfected with rat NaP2b, 100 uM phosphate, 0.1 nM to 30 uM, read-out: pIC50 range for rat Nap2b (converted)
T1 construct: host or cells: HEK293
T1 sequence (Q9JJ09 1-695): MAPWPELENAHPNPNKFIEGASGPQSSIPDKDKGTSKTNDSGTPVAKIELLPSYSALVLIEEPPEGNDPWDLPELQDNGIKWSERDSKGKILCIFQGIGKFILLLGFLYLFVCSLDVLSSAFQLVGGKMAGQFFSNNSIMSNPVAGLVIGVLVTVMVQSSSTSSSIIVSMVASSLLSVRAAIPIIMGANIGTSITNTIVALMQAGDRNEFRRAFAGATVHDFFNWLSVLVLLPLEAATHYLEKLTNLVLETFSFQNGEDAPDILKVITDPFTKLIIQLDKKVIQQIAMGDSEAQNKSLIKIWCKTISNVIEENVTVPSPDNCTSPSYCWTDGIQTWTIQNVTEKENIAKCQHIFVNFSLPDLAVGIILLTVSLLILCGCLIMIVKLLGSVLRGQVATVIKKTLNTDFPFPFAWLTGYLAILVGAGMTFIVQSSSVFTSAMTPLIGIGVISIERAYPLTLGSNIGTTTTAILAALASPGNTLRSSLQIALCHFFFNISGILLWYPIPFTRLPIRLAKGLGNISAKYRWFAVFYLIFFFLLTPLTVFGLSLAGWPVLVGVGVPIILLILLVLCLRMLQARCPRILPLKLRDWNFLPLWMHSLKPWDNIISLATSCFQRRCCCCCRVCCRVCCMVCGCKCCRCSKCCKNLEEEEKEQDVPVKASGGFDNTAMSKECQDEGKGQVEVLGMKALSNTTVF
In short: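 HEK293 cells transiently transfected with rat NaP2b; 33P-phosphate uptake measured in sodium or choline buffer (100 uM KH2PO4, PiT-silencing agent, pH 7.4) with compound at twelve concentrations, 0.1 nM–30 uM, in duplicate. Lysed cells counted by scintillation; pIC50 derived from concentration-response.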

[1] = Fecal recovery of orally administered compounds; assay type: in vivo; conditions: rat; oral gavage; feces collected until 48 hr after dosing
Source text: In this respect, it is understood that a recovered compound can include the sum of the parent compound and its metabolites derived from the parent compound, e.g., by means of hydrolysis, conjugation, reduction, oxidation, N-alkylation, glucuronidation, acetylation, methylation, sulfation, phosphorylation, or any other modification that adds atoms to or removes atoms from the parent compound, wherein the metabolites are generated via the action of any enzyme or exposure to any physiological environment including, pH, temperature, pressure, or interactions with foodstuffs as they exist in the digestive milieu. Measurement of fecal recovery of compound and metabolites can be carried out using standard methodology. For example, compound can be administered orally at a suitable dose (e.g., 10 mg/kg) and feces are then collected at predetermined times after dosing (e.g., 24 hours, 48 hours, 72 hours). Parent compound and metabolites can be extracted with organic solvent and analyzed quantitatively using mass spectrometry. A mass balance analysis of the parent compound and metabolites (including, parent=M, metabolite 1 [M+16], and metabolite 2 [M+32]) can be used to determine the percent recovery in the feces.
Quantitative determination of test compound level in feces after oral gavage was performed using the same set of animals used to determine test compound concentration in plasma (Example 352). The animals were kept in metabolic cages and feces were collected from the time of dosing until 48 hr after dosing. Upon collection, feces were dried by lyophilization and ground to a visually homogenous powder. Duplicate samples of ground feces from each individual animal were weighed out and extracted using organic solvent. Extracted samples were then diluted into mobile phase and test compound levels were quantitatively determined by LC-MS/MS analysis as described in Example 352 except that the standard curve was prepared in a feces matrix. Extraction conditions were not optimized for individual compounds, and thus may represent a minimal level of recovery.

[2] = Stability of compounds in simulated intestinal fluid (SIF); assay type: in vitro ADME; conditions: simulated intestinal fluid (USP, 3 mg/mL pancreatin), 1-20 μM, incubation time 6 hr, relative to t=0
Description: (§1) Test compounds were incubated at 1-20 μM in simulated gastric fluid (SGF; standard USP solution with 3 mg/mL pepsin) or simulated intestinal fluid (SIF; standard USP solution with 3 mg/mL pancreatin) for 3 hr or 6 hr. HPLC-UV or HPLC-MS were used to determine test compound levels using peak area %. Results (Table 14) were reported as the percentage of test compound remaining after incubation in a given condition relative to test compound present at t=0 in the same condition.

[3] = Stability of compounds in simulated gastric fluid (SGF); assay type: in vitro ADME; conditions: simulated gastric fluid (USP, 3 mg/mL pepsin), 1-20 μM, incubation time 6 hr, relative to t=0
Description: as §1

human NaP2b (SLC34A2) = molecular target: T2, human NaP2b (SLC34A2) (Homo sapiens, UniProt O95436); assay: Inhibition of NaP2b-mediated Pi (33P) uptake in transfected HEK293 cells, human NaP2b; assay type: cell-based; conditions: HEK293 cells transfected with human NaP2b, 100 uM phosphate, 0.1 nM to 30 uM, read-out: pIC50 range for human NaP2b (converted)
T2 construct: host or cells: HEK293
T2 sequence (O95436 1-690): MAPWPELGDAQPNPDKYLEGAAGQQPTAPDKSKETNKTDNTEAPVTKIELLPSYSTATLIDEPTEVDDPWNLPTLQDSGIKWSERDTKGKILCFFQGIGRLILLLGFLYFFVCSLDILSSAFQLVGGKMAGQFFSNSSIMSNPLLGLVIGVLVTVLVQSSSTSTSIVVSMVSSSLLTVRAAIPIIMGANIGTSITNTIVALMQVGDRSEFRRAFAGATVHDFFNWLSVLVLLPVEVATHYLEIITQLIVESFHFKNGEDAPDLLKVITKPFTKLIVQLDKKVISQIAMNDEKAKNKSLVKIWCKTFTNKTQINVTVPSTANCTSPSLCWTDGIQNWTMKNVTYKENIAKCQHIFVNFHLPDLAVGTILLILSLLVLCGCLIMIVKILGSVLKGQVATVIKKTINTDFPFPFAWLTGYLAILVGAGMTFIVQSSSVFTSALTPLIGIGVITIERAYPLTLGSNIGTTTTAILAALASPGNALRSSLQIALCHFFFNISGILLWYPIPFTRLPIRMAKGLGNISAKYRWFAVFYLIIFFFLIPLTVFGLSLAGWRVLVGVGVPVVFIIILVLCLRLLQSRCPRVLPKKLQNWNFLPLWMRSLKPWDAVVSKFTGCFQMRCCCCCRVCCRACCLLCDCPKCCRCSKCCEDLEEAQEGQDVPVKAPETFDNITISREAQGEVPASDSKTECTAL
Description: HEK293 cells were obtained from the American Type Culture collection and propagated per their instructions. Expression clones for rat and human NaP2b (SLC34A2) were obtained from Open Biosystems (Catalog numbers MRN1768-9510282, and MHS1010-99823026, respectively). The sequence of the human protein was mutated to insert a threonine after residue 37, and to introduce a N39D mutation.
The rate of phosphate (Pi) uptake into HEK293 cells was measured using a modification of the method described by Mohrmann et al. (Mohrmann, I., Mohrmann, M., Biber, J., and Murer, H. (1986) Am. J. Phys. 250(3 Pt 1):G323-30.) Transfected HEK293 cells were treated with a pharmacological agent to minimize endogenous PiT-mediated phosphate transport activity, such that the only remaining sodium-dependent phosphate transport activity is that which was bestowed by introduction of the NaP2b genes.
Cells were seeded into 96-well plates at 25,000 cells/well and cultured overnight. Lipofectamine 2000 (Invitrogen) was used to introduce the NaP2b cDNA, and the cells were allowed to approach confluence during a second overnight incubation. […] Cells were then overlayed with either choline uptake buffer or sodium uptake buffer (14 mM Tris, 137 mM sodium chloride, 5.4 mM KCl, 2.8 mM CaCl2, 1.2 mM MgSO4, 100 uM KH2PO4, PiT-silencing agent, 1 mg/mL Bovine Serum Albumin, pH 7.4) containing 6-9 uCi/mL ^33P orthophosphoric acid (Perkin Elmer) and test compound. Each compound was tested at twelve concentrations ranging from 0.1 nM to 30 uM. Assays were run in duplicate.
After incubation for 3-30 minutes at room temperature, assay mixtures were removed, and the cells were washed twice with ice cold stop solution (137 mM sodium chloride, 14 mM Tris, pH 7.4). Cells were lysed by addition of 20 μL 0.1% Tween 80 followed by 100 μL scintillation fluid, and counted using a TopCount (Perkin Elmer).
pIC50 (the negative log of the […]) values of the test compounds were calculated using GraphPad Prism.

Sprague-Dawley rats [4] = assay: In vivo co-dosing in chow (urine P out / P consumed); conditions: feed or water; rat; drug in chow, nominal 100 mg/kg/day (mean dose per line in table); urine 24-96 h; read-out: Mean % inhibition Urine Pout/P consumed
Source text: Male, 7-week-old Sprague-Dawley rats (Charles-River laboratories international, Hollister, Calif.) were allowed to acclimate for a minimum of 3 days. The experiment was initiated by switching animals to a synthetic diet (0.6% phosphorus and 0.6% calcium, Harlan Teklad TD.84122) for four days. After this time, the animals were placed into metabolic cages for daily monitoring of food and water consumption, as well as urine and fecal collections. Test compounds were incorporated into the powdered diet listed above containing 3% chocolate flavoring (w/w, BioServ #7345) at 1.3 mg test compound per gram of diet to achieve an average daily nominal dose of 100 mg/kg/day. The actual dose received by each animal was later determined by measuring prepared diet consumption and body weight. Urine samples were collected in three daily periods from 24-48, 48-72, and 72-96 hours of drug dosing. […] Phosphorus levels in the urine were determined by anion exchange chromatography using a Dionex ICS-3000 ion chromatography system. […] Elution of urine phosphate ions was monitored via conductivity detector and reported as ppm relative to a standard ion solution containing phosphate. Daily urinary P output relative to the P consumed in the prepared diet for each animal was calculated. […] The differences between the means of control and treated groups were evaluated by t tests. […]

Sprague-Dawley rats [5] = assay: In vivo bolus phosphorus challenge (serum phosphate elevation); conditions: rat; oral; drug dose 30; phosphate bolus 15 min after compound; serum 30 min post bolus
Description: By pretreating animals with a low phosphorus diet followed by the subsequent dosing of a phosphorus bolus, serum phosphorus levels were monitored after 30 minutes as a surrogate for intestinal phosphorus absorption. […] The in vivo bolus phosphorus challenge model used here mimics this model in rats.
Male, 7-week-old Sprague-Dawley rats (Charles-River laboratories international, Hollister, Calif.) were allowed to acclimatize for a minimum of 3 days before switching to a synthetic low-phosphorus diet (TD.85010, Harlan Teklad, Madison, Wis.) which contains 0.1% phosphorus and 0.6% calcium. At day 5, testing compounds or vehicle alone (as indicated) were orally administered at the indicated dose in a volume of 5 ml/kg, followed by a bolus gavage of monobasic sodium phosphate (1 mmol in 1 ml) 15 min after compound dosing. Serum was collected via retroorbital bleeding 30 min post phosphate bolus and phosphate levels were determined utilizing an ACE ALERA blood chemistry analyzer (Alfa Wassermann Diagnostic Technologies, West Caldwell, N.J.).
The extent of inhibition by test compounds on the elevation of serum phosphate levels in response to the bolus of phosphorus is shown in Table 12 (data are expressed as % Inhibition, with 6-10 animals per data point). The differences between groups were evaluated by one-way analysis of variance with Dunnett's post hoc tests.

Row | IC50 (rat NaP2b (SLC34A2)) [nM] | IC50 (human NaP2b (SLC34A2)) [nM] | SMILES | % recovered in feces [1] [%] | % remaining, SIF [2] | % remaining, SGF [3] [%] | inhibition in vivo at 100 mg/kg/day (Sprague-Dawley rats [4]) [%] | % Inhibition of Serum P elevation (Sprague-Dawley rats [5])
1 | < 1000 | < 1000 | CN(CCN1CCOCC1)C(=O)c1cccc(C(=O)Nc2ccc(N3CCCCC3)cc2-c2cc(C(=O)N[C@H]3CCCc4ccccc43)ccn2)c1 [Example 37, (S)—N1-Methyl-N1-(2-morpholinoethyl)-N3-(4-(piperidin-1-yl)-2-(4-((1,2,3,4-tetrahydronaphthalen-1-yl)carbamoyl)pyridin-2-yl)phenyl)isophthalamide] |  |  |  | ≤ 10 | 
2 | 1000 to 7940 | < 1000 | CCN(CC)c1ccc(NC(=O)c2cccc(COCCOCCOCCOCCOCCOCCOC(=O)NCCOCCOCCOCCOCCOCCOCCOC)c2)c(-c2cc(C(=O)NCc3cccc(C(F)(F)F)c3)ccn2)c1 [Example 174, 1-(3-(4-(diethylamino)-2-(4-(3-(trifluoromethyl)benzylcarbamoyl)pyridin-2-yl)phenylcarbamoyl)phenyl)-2,5,8,11,14,17-hexaoxanonadecan-19-yl 2,5,8,11,14,17,20-heptaoxadocosan-22-ylcarbamate] |  | >80% | >80 |  | 
3 | 10000 to 31600 |  | O=C(O)CCSCc1cccc(C(=O)Nc2ccc(N3CCOCC3)cc2-c2cc(C(=O)NCc3cccc(C(F)(F)F)c3)ccn2)c1 [Example 14, 3-((3-((4-Morpholino-2-(4-((3-(trifluoromethyl)benzyl)carbamoyl)pyridin-2-yl)phenyl)carbamoyl)benzyl)thio)propanoic acid] |  |  |  |  | 10-20%
4 | 1000 to 7940 |  | O=C(O)CCSCc1cccc(C(=O)Nc2ccc(Cl)cc2-c2cc(C(=O)NCc3cccc(C(F)(F)F)c3)ccn2)c1 [Example 21, 3-((3-((4-Chloro-2-(4-((3-(trifluoromethyl)benzyl)carbamoyl)pyridin-2-yl)phenyl)carbamoyl)benzyl)thio)propanoic acid] |  |  |  |  | 10-20%

Row | SMILES | IC50 (rat NaP2b (SLC34A2)) [nM] | IC50 (human NaP2b (SLC34A2)) [nM] | % recovered in feces [1] [%] | % remaining, SIF [2] | % remaining, SGF [3] [%] | inhibition in vivo at 100 mg/kg/day (Sprague-Dawley rats [4]) [%] | % Inhibition of Serum P elevation (Sprague-Dawley rats [5])
5 | CN(CCN1CCOCC1)C(=O)c1cccc(C(=O)Nc2ccc(OC3CCC3)cc2-c2cc(C(=O)NCc3cccc(C(F)(F)F)c3)ccn2)c1 [Example 26, N1-(4-Cyclobutoxy-2-(4-((3-(trifluoromethyl)benzyl)carbamoyl)pyridin-2-yl)phenyl)-N3-methyl-N3-(2-morpholinoethyl)isophthalamide] | 1000 to 7940 |  | <20 | 60-80% | >80 |  | 
